Test systems include SR leukemia; SK-MEL-28 melanoma; HCT-116 colon; SF-295 CNS; HOP-92 NSCLC; SW-620 colon; OVCAR-8 ovarian; MALME-3M melanoma; DU-145 prostate; NCI-H460 lung; MDA-MB-435; PC-3 prostate; NCI-H226 lung.
What all share (assay): NCI anticancer screen, dose series, 48 h

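Dose response: 5 concentrations. Exposure: 48 h. Format: 96-well plates. Endpoint: linear interpolation; highest concentration if not reached. At the TGI there is no net growth.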 *1 amine or outer side, *2 acyl side, *3 side chain or, on linkers, in order; H or OH if unused. Where a SMILES comes first, the peptide text is derived from it. [ ]: non-standard residue; d: D form. The star is where a group is joined. X31 = CC(=O)N(C)SCC(N[*:1])C(=O)[*:2]; Fmoc = O=C(OCC1c2ccccc2-c2ccccc21)*; For = O=C*

Consider `Cc1ccc(-n2cc(-c3ccc(Cl)cc3)c(C#N)c2N)cc1`, for which the TGI in the experiment on SR leukemia was more than 100 µM; with SK-MEL-28 melanoma, 33.2 µM; with HCT-116 colon, 27.1 µM; with SF-295 CNS, 33.8 µM; with HOP-92 NSCLC, 31.5 µM; with SW-620 colon, 26 µM. For the same molecule, the TGI turned out to be 30.5 µM with OVCAR-8 ovarian; 33.1 µM in the experiment on MALME-3M melanoma; 71.4 µM with DU-145 prostate; 30.4 µM in the experiment with NCI-H460 lung; 32.7 µM in the experiment with MDA-MB-435; 25.4 µM in the experiment on PC-3 prostate. The molecule also registered a TGI in the experiment with NCI-H226 lung of 31.7 µM.
Consider `COc1ccccc1N1C(=O)CC(=O)N(C(=O)CCCCCCCCC(=O)N2C(=O)CC(=O)N(c3ccccc3OC)C2=S)C1=S`, for which the TGI in the experiment on SR leukemia, with SK-MEL-28 melanoma, in the experiment with HCT-116 colon, in the experiment with SF-295 CNS, in the experiment with HOP-92 NSCLC and in the experiment with SW-620 colon was more than 100 µM in each case. For the same molecule, the TGI in the experiment with OVCAR-8 ovarian, in the experiment with MALME-3M melanoma, with DU-145 prostate, with NCI-H460 lung, in the experiment with MDA-MB-435 and in the experiment on PC-3 prostate was more than 100 µM in each case. In the experiment with NCI-H226 lung, this molecule registered a TGI of more than 100 µM.
For the molecule `OC1(c2ccc3ccccc3c2)c2c(c3ccccc3c3ccccc23)C2=NCCN21` (stereo not drawn), the TGI with SR leukemia is more than 28.4 µM; in the experiment on SK-MEL-28 melanoma, 6.09 µM; in the experiment with HCT-116 colon, 10.3 µM; in the experiment on SF-295 CNS it was 12.2 µM; with HOP-92 NSCLC, 70.3 µM; with SW-620 colon it was 23 µM. Moreover, the TGI was more than 30.3 µM in the experiment with OVCAR-8 ovarian; 38.1 µM in the experiment with MALME-3M melanoma; more than 65.3 µM in the experiment with DU-145 prostate; more than 40.5 µM in the experiment on NCI-H460 lung; 5.1 µM with MDA-MB-435; more than 69.3 µM in the experiment on PC-3 prostate. In addition, the TGI in the experiment on NCI-H226 lung was more than 100 µM.
Turning to `O=C1C(NS(=O)(=O)c2ccccc2)=C(N(Cc2ccccc2)Cc2ccccc2)C(=O)c2ccccc21`, the TGI in the experiment with SR leukemia, in the experiment on SK-MEL-28 melanoma, with HCT-116 colon, in the experiment with SF-295 CNS, in the experiment on HOP-92 NSCLC and with SW-620 colon was more than 100 µM each time. Also, the TGI in the experiment with OVCAR-8 ovarian is more than 100 µM; with MALME-3M melanoma, 0.584 µM; in the experiment on DU-145 prostate, more than 100 µM; in the experiment with NCI-H460 lung, more than 100 µM; in the experiment with MDA-MB-435, more than 100 µM; with PC-3 prostate, more than 100 µM. In the experiment on NCI-H226 lung, this molecule had a TGI of more than 100 µM.
Regarding `CC(=O)/C(=C(/Br)I)c1ccccc1`, the TGI worked out at 13.5 µM in the experiment on SR leukemia; 26.5 µM in the experiment on SK-MEL-28 melanoma; 15.2 µM in the experiment on HCT-116 colon; 29 µM in the experiment with SF-295 CNS; 23.8 µM with HOP-92 NSCLC; 11.4 µM in the experiment on SW-620 colon. Further, the TGI was 28.1 µM in the experiment on OVCAR-8 ovarian; 23.1 µM in the experiment with MALME-3M melanoma; 31.4 µM in the experiment with DU-145 prostate; 48.3 µM in the experiment with NCI-H460 lung; 11.9 µM in the experiment with MDA-MB-435; 32.2 µM with PC-3 prostate. The same molecule came in with a TGI with NCI-H226 lung of 27.2 µM.
As to `COC(=O)C1(C)OC(C)=NC1(C(=O)OC)C(=O)OC` (stereo not drawn), the TGI with SR leukemia, in the experiment on SK-MEL-28 melanoma, in the experiment with HCT-116 colon, with SF-295 CNS, in the experiment with HOP-92 NSCLC and with SW-620 colon was more than 100 µM each time. The TGI with OVCAR-8 ovarian, with MALME-3M melanoma, in the experiment with DU-145 prostate, in the experiment on NCI-H460 lung, in the experiment on MDA-MB-435 and in the experiment on PC-3 prostate was more than 100 µM throughout. Further, the TGI in the experiment on NCI-H226 lung was more than 100 µM.
`O=C1c2c(ccc3c2CCCC3)CC1Cc1ccc2c(c1)CCCC2` (stereo not drawn): the TGI is 67.6 µM in the experiment with SR leukemia; more than 100 µM with SK-MEL-28 melanoma; more than 100 µM with HCT-116 colon; more than 100 µM in the experiment with SF-295 CNS; 83.6 µM in the experiment with HOP-92 NSCLC; more than 100 µM in the experiment with SW-620 colon. The TGI in the experiment on OVCAR-8 ovarian, with MALME-3M melanoma, with DU-145 prostate, with NCI-H460 lung, in the experiment with MDA-MB-435 and in the experiment with PC-3 prostate was more than 100 µM throughout. The TGI with NCI-H226 lung is more than 100 µM.
For the molecule `Cc1ncc(CO)c(C=NCCCCCCN=Cc2c(CO)cnc(C)c2O)c1O`, the TGI in the experiment on SR leukemia, in the experiment on SK-MEL-28 melanoma, in the experiment on HCT-116 colon, in the experiment on SF-295 CNS, in the experiment with HOP-92 NSCLC and in the experiment with SW-620 colon was more than 100 µM in each case. The TGI with OVCAR-8 ovarian, in the experiment with MALME-3M melanoma, with DU-145 prostate, with NCI-H460 lung, in the experiment on MDA-MB-435 and in the experiment with PC-3 prostate was more than 100 µM in each case. The molecule also yielded a TGI in the experiment on NCI-H226 lung of more than 100 µM.
With `C=CC[C@H]1[C@H](O[Si](C)(C)C(C)(C)C)C=CC(=O)[C@@H]1CC(=O)OCC`, the TGI in the experiment on SR leukemia stood at 41.7 µM; in the experiment with SK-MEL-28 melanoma, 34.6 µM; with HCT-116 colon, 23.5 µM; with SF-295 CNS, 27.8 µM; in the experiment on HOP-92 NSCLC, 24.2 µM; in the experiment on SW-620 colon, 33 µM. Further, the TGI in the experiment on OVCAR-8 ovarian came to 31.6 µM; in the experiment with MALME-3M melanoma, 25.9 µM; in the experiment on DU-145 prostate, 32.8 µM; in the experiment with NCI-H460 lung, 27.6 µM; with MDA-MB-435 it was 26.4 µM; with PC-3 prostate, 21.3 µM. In the experiment on NCI-H226 lung, this molecule gave a TGI of 29.2 µM.
Take `CC1=C(C)C(=O)C(C2=C(C3=CC(=O)C(C)=C(C)C3=O)C(=O)c3ccccc3C2=O)=CC1=O`: the TGI with SR leukemia worked out at 14.1 µM; in the experiment on SK-MEL-28 melanoma it was 5.03 µM; in the experiment on HCT-116 colon, 5.31 µM; in the experiment with SF-295 CNS it was 27.9 µM; in the experiment on HOP-92 NSCLC, 6.72 µM; in the experiment on SW-620 colon, 4.99 µM. In addition, the TGI in the experiment on OVCAR-8 ovarian was 8.07 µM; with MALME-3M melanoma, 2.8 µM; with DU-145 prostate, 8.06 µM; in the experiment with NCI-H460 lung, 37.7 µM; with MDA-MB-435, 3.05 µM; in the experiment with PC-3 prostate, 7.83 µM. For the same molecule, the TGI with NCI-H226 lung is 21 µM.
As to `CC(=O)N(C)SCC(NC(=O)C(Cc1ccccc1)NC(=O)OCC1c2ccccc2-c2ccccc21)C(=O)NC(Cc1ccccc1)C(=O)NC(Cc1cn(C=O)c2ccccc12)C(=O)NC(CCCCNC(=O)OCC1c2ccccc2-c2ccccc21)C(=O)NC(C(=O)NC(CSN(C)C(C)=O)C(=O)NC(C(N)=O)C(C)O)C(C)O` (stereo not drawn) (Fmoc-F[X31]FW(For)K(Fmoc)T[X31]T-NH2; configuration not given here), the TGI was more than 100 µM in the experiment on SR leukemia; more than 100 µM with SK-MEL-28 melanoma; more than 100 µM with HCT-116 colon; more than 100 µM in the experiment on SF-295 CNS; 62.4 µM with HOP-92 NSCLC; more than 100 µM in the experiment with SW-620 colon. In addition, the TGI in the experiment on OVCAR-8 ovarian, with MALME-3M melanoma, with DU-145 prostate, in the experiment with NCI-H460 lung, with MDA-MB-435 and with PC-3 prostate was more than 100 µM throughout. In the experiment with NCI-H226 lung, this molecule had a TGI of more than 100 µM.
Regarding `COC(=O)CCC1(O)C=CC(=O)C=C1`, the TGI in the experiment with SR leukemia is more than 100 µM; with SK-MEL-28 melanoma, 60.9 µM; with HCT-116 colon, more than 100 µM; in the experiment on SF-295 CNS, more than 100 µM; in the experiment with HOP-92 NSCLC, more than 100 µM; in the experiment with SW-620 colon, more than 100 µM. Besides, the TGI in the experiment with OVCAR-8 ovarian was more than 100 µM; in the experiment with MALME-3M melanoma it was 50 µM; with DU-145 prostate, more than 100 µM; in the experiment with NCI-H460 lung, more than 100 µM; with MDA-MB-435 it was more than 100 µM; with PC-3 prostate, more than 100 µM. The molecule also had a TGI in the experiment on NCI-H226 lung of more than 100 µM.
As for `CCSC12CC3c4cccc5c4C(CN5C(=O)c4ccccc4)CC3(O1)N(C)C2=O` (stereo not drawn), the TGI is 77.6 µM in the experiment with SR leukemia; more than 100 µM with SK-MEL-28 melanoma; more than 100 µM with HCT-116 colon; more than 100 µM in the experiment with SF-295 CNS; 71.9 µM in the experiment on HOP-92 NSCLC; more than 100 µM with SW-620 colon. The TGI was more than 100 µM in the experiment with OVCAR-8 ovarian; 88.3 µM in the experiment on MALME-3M melanoma; more than 100 µM with DU-145 prostate; more than 100 µM in the experiment with NCI-H460 lung; more than 100 µM with MDA-MB-435; 81.2 µM with PC-3 prostate. Besides, the TGI in the experiment with NCI-H226 lung was more than 100 µM.
Take `Cc1ccc(-n2cc(-c3ccc(Cl)cc3)c3c2N=CN2NC(c4cccs4)=NC32)cc1` (stereo not drawn): the TGI in the experiment on SR leukemia is more than 100 µM; with SK-MEL-28 melanoma, more than 100 µM; in the experiment on HCT-116 colon, 22 µM; in the experiment on SF-295 CNS, 25.2 µM; in the experiment with HOP-92 NSCLC, 24 µM; in the experiment on SW-620 colon, more than 100 µM. In addition, the TGI in the experiment with OVCAR-8 ovarian is 21 µM; in the experiment with MALME-3M melanoma it was more than 100 µM; in the experiment with DU-145 prostate, more than 100 µM; in the experiment with NCI-H460 lung, 19.2 µM; with MDA-MB-435 it was more than 100 µM; with PC-3 prostate it was more than 100 µM. The same molecule returned a TGI with NCI-H226 lung of 80.7 µM.
For the molecule `COc1nc(C)nc2c1ncn2Cc1ccccc1`, the TGI with SR leukemia was more than 100 µM; in the experiment on SK-MEL-28 melanoma, more than 100 µM; with HCT-116 colon, more than 100 µM; in the experiment with SF-295 CNS, more than 100 µM; in the experiment with HOP-92 NSCLC, 53.9 µM; with SW-620 colon it was more than 100 µM. Further, the TGI in the experiment with OVCAR-8 ovarian, in the experiment with MALME-3M melanoma, in the experiment with DU-145 prostate, with NCI-H460 lung, with MDA-MB-435 and in the experiment on PC-3 prostate was more than 100 µM throughout. The molecule further displayed a TGI with NCI-H226 lung of more than 100 µM.
Regarding `NCCC1([N+](=O)[O-])CCNCC1`, the TGI in the experiment with SR leukemia, in the experiment with SK-MEL-28 melanoma, with HCT-116 colon, with SF-295 CNS, in the experiment on HOP-92 NSCLC and with SW-620 colon was more than 100 µM throughout. Further, the TGI in the experiment with OVCAR-8 ovarian, with MALME-3M melanoma, in the experiment with DU-145 prostate, in the experiment on NCI-H460 lung, with MDA-MB-435 and in the experiment with PC-3 prostate was more than 100 µM throughout. Besides, the TGI in the experiment with NCI-H226 lung was more than 100 µM.

For the origin of these results see PubChem BioAssay (NCI).
